pIC50: −log10 of the molar value.
Target: T1, human RNR (histidine tagged human M1 and human M2 proteins) (Homo sapiens, UniProt P23921)
T1 construct: made in house; host or cells: Escherichia coli
T1 sequence (P23921 1-792): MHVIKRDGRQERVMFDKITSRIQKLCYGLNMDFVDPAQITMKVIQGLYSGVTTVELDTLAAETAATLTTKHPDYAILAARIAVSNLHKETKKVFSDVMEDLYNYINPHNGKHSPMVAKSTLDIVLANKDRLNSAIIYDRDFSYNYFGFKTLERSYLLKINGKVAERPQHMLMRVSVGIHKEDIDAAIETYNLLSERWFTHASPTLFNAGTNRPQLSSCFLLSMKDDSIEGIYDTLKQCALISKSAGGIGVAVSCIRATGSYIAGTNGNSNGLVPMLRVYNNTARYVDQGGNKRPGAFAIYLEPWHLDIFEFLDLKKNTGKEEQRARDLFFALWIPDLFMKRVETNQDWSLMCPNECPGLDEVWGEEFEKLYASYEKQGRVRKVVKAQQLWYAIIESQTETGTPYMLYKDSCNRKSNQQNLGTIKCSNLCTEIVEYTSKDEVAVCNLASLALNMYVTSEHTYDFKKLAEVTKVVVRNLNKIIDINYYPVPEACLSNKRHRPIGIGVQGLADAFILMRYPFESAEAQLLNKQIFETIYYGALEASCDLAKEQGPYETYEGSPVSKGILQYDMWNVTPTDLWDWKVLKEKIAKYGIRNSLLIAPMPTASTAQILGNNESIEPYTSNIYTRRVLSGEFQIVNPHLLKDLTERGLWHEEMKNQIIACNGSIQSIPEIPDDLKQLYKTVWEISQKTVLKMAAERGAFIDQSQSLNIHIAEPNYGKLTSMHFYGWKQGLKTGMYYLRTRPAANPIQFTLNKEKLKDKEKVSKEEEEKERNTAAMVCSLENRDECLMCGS
Assay: Human RNR inhibition effect (dCDP formation from CDP)
Type: biochemical
Details: 10 μM CDP, 37° C. for 30 minutes, read-out: RNR inhibitory activity IC50
Procedure, shortened: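 His-tagged human M1 (isoform 1) and N-terminal 59-aa-truncated M2 (isoform 2), E. coli-expressed, Ni-purified, preincubated 20 min with compound (1% DMSO). Reaction with 10 μM CDP, 2 mM ATP, 0.24 mM NADPH, 6 mM DTT, 4 mM Mg acetate, 100 mM KCl, 50 mM HEPES pH 7.2, 30 min at 37° C. dCDP formed quantified by reverse-phase HPLC after heat stop.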

pIC50	SMILES
6.07	C[C@H](c1cccc2c1-c1ccccc1C2)[C@H](NS(=O)(=O)c1ccc(Br)cn1)c1n[nH]c(=O)o1 [Example 50, N-((1S,2R)-2-(9H-fluoren-4-yl)-1-(5-oxo-4,5-dihydro-1,3,4-oxadiazol-2-yl)propyl)-5-bromopyridine-2-sulfonamide]
6.11	C[C@H](c1cccc2c1CCCC2)[C@H](NS(=O)(=O)c1ccc(Cl)cn1)c1n[nH]c(=O)o1 [Example 52]
6.00	C[C@H](c1cccc2c1CCC2)[C@H](NS(=O)(=O)c1ccc(Br)cc1F)c1n[nH]c(=O)o1 [Example 60, 4-bromo-N-((1S,2R)-2-(2,3-dihydro-1H-inden-4-yl)-1-(5-oxo-4,5-dihydro-1,3,4-oxadiazol-2-yl)propyl)-2-fluorobenzenesulfonamide]
6.15	COc1cc(Cl)ccc1S(=O)(=O)N[C@H](c1n[nH]c(=O)o1)[C@H](C)c1cccc2c1CC(C)C2 (stereo partly drawn) [Example 67, 4-chloro-2-methoxy-N-((1S,2R)-2-(2-methyl-2,3-dihydro-1H-inden-4-yl)-1-(5-oxo-4,5-dihydro-1,3,4-oxadiazol-2-yl)propyl)benzenesulfonamide]
6.62	COc1cc(Cl)ccc1S(=O)(=O)N[C@H](c1n[nH]c(=O)o1)[C@H](C)c1cccc2cccc(C)c12 [Example 71, 4-chloro-2-methoxy-N-((1S,2R)-2-(8-methylnaphthalen-1-yl)-1-(5-oxo-4,5-dihydro-1,3,4-oxadiazol-2-yl)propyl)benzenesulfonamide]
6.70	COc1cc(Cl)ccc1S(=O)(=O)N[C@H](c1n[nH]c(=O)o1)[C@H](C)c1c(F)ccc2ccccc12 [Example 76, 4-chloro-N-((1S,2R)-2-(2-fluoronaphthalen-1-yl)-1-(5-oxo-4,5-dihydro-1,3,4-oxadiazol-2-yl)propyl)-2-methoxybenzenesulfonamide]
6.55	Cc1cccc2cccc([C@@H](C)[C@H](NS(=O)(=O)c3ccc(Cl)c4c3OCCC4(F)F)c3n[nH]c(=O)o3)c12 [Example 81, 5-chloro-4,4-difluoro-N-((1S,2R)-2-(8-methylnaphthalen-1-yl)-1-(5-oxo-4,5-dihydro-1,3,4-oxadiazol-2-yl)propyl)chroman-8-sulfonamide]
6.85	COc1cc(Cl)ccc1S(=O)(=O)N[C@H](c1n[nH]c(=O)o1)[C@H](C)c1c(F)ccc(C)c1C [Example 83, 4-chloro-N-((1S,2R)-2-(6-fluoro-2,3-dimethylphenyl)-1-(5-oxo-4,5-dihydro-1,3,4-oxadiazol-2-yl)propyl)-2-methoxybenzenesulfonamide]
6.44	Cc1ccc(F)c([C@@H](C)[C@H](NS(=O)(=O)c2ccc(Cl)cc2C#N)c2n[nH]c(=O)o2)c1C [Example 84, 4-chloro-2-cyano-N-((1S,2R)-2-(6-fluoro-2,3-dimethylphenyl)-1-(5-oxo-4,5-dihydro-1,3,4-oxadiazol-2-yl)propyl)benzenesulfonamide]

The remaining lines, values behind:

SMILES	pIC50
Cc1c(Br)ccc(F)c1[C@@H](C)[C@H](NS(=O)(=O)c1ccc(Br)cc1C(N)=O)c1n[nH]c(=O)o1 [Example 35, 5-bromo-2-(N-((1S,2R)-2-(3-bromo-6-fluoro-2-methylphenyl)-1-(5-oxo-4,5-dihydro-1,3,4-oxadiazol-2-yl)propyl)sulfamoyl)benzamide]	6.89
Cc1ccc(F)c([C@@H](C)[C@H](NS(=O)(=O)c2cc(C(=O)N3CCOCC3)ccc2C(N)=O)c2n[nH]c(=O)o2)c1C [Example 36, 2-(N-((1S,2R)-2-(6-fluoro-2,3-dimethylphenyl)-1-(5-oxo-4,5-dihydro-1,3,4-oxadiazol-2-yl)propyl)sulfamoyl)-4-(morpholine-4-carbonyl)benzamide]	6.96
Cc1ccc(F)c([C@@H](C)[C@H](NS(=O)(=O)c2cc(C(=O)N(C)C)ccc2C(N)=O)c2n[nH]c(=O)o2)c1C [Example 37, 3-(N-((1S,2R)-2-(6-fluoro-2,3-dimethylphenyl)-1-(5-oxo-4,5-dihydro-1,3,4-oxadiazol-2-yl)propyl)sulfamoyl)-N1,N1-dimethylterephthalamide]	6.85
Cc1ccc(F)c([C@@H](C)[C@H](NS(=O)(=O)c2cc(C(=O)O)c(Cl)cc2C(N)=O)c2n[nH]c(=O)o2)c1C [Example 38, 4-carbamoyl-2-chloro-5-(N-((1S,2R)-2-(6-fluoro-2,3-dimethylphenyl)-1-(5-oxo-4,5-dihydro-1,3,4-oxadiazol-2-yl)propyl)sulfamoyl)benzoic acid]	6.72
Cc1ccc(F)c([C@@H](C)[C@H](NS(=O)(=O)c2cc(C(=O)N(C)C)c(Cl)cc2C(N)=O)c2n[nH]c(=O)o2)c1C [Example 39, 2-chloro-5-(N-((1S,2R)-2-(6-fluoro-2,3-dimethylphenyl)-1-(5-oxo-4,5-dihydro-1,3,4-oxadiazol-2-yl)propyl)sulfamoyl)-N1,N1-dimethyl terephthalamide]	7.40
Cc1ccc(F)c([C@@H](C)[C@H](NS(=O)(=O)c2cnc(Cl)cc2C(N)=O)c2n[nH]c(=O)o2)c1C [Example 40, 2-chloro-5-(N-((1S,2R)-2-(6-fluoro-2,3-dimethylphenyl)-1-(5-oxo-4,5-dihydro-1,3,4-oxadiazol-2-yl)propyl)sulfamoyl)isonicotinamide]	6.89
Cc1ccc(F)c([C@@H](C)[C@H](NS(=O)(=O)c2ccc(C(F)(F)F)cc2C(N)=O)c2n[nH]c(=O)o2)c1C [Example 41, 2-(N-((1S,2R)-2-(6-fluoro-2,3-dimethylphenyl)-1-(5-oxo-4,5-dihydro-1,3,4-oxadiazol-2-yl)propyl)sulfamoyl)-5-(trifluoromethyl)benzamide]	7.00
Cc1c(Br)ccc(F)c1[C@@H](C)[C@H](NS(=O)(=O)c1ccc(C(F)(F)F)cc1C(N)=O)c1n[nH]c(=O)o1 [Example 42, 2-(N-((1S,2R)-2-(3-bromo-6-fluoro-2-methylphenyl)-1-(5-oxo-4,5-dihydro-1,3,4-oxadiazol-2-yl)propyl)sulfamoyl)-5-(trifluoromethyl)benzamide]	6.70
[2H]C([2H])([2H])[C@H](c1c(F)ccc(C)c1C)[C@H](NS(=O)(=O)c1ccc(Cl)cc1C(N)=O)c1n[nH]c(=O)o1 [Example 43, 5-chloro-2-[[(1S,2R)-3,3,3-trideuterio-2-(6-fluoro-2,3-dimethylphenyl)-1-(2-oxo-3H-1,3,4-oxadiazol-5-yl)propyl]sulfamoyl]benzamide]	7.10
C[C@H](c1cccc2ccccc12)[C@H](NS(=O)(=O)c1ccc(Cl)cc1Cl)c1n[nH]c(=O)o1 [Example 46, 2,4-dichloro-N-((1S,2R)-2-(naphthalen-1-yl)-1-(5-oxo-4,5-dihydro-1,3,4-oxadiazol-2-yl)propyl)benzenesulfonamide]	6.08
CC1CCc2cccc(C(C)[C@H](NS(=O)(=O)c3ccc(Br)cn3)c3n[nH]c(=O)o3)c21 (stereo partly drawn) [Example 48, 5-bromo-N-((1S)-2-(3-methyl-2,3-dihydro-1H-inden-4-yl)-1-(5-oxo-4,5-dihydro-1,3,4-oxadiazol-2-yl)propyl)pyridine-2-sulfonamide]	6.22
C[C@H](c1cccc2c1Cc1ccccc1-2)[C@H](NS(=O)(=O)c1ccc(Br)cn1)c1n[nH]c(=O)o1 [Example 49, N-((1S,2R)-2-(9H-fluoren-1-yl)-1-(5-oxo-4,5-dihydro-1,3,4-oxadiazol-2-yl)propyl)-5-bromopyridine-2-sulfonamide]	6.10
